The values that follow come from ChEMBL document CHEMBL4257493, “Discovery of 7-hydroxyaporphines as conformationally restricted ligands for beta-1 and beta-2 adrenergic receptors” (Medchemcomm, 2018).

SMILES strings stand for the structures. Bounds are passed on as bounds.

Sequence of Beta-2 adrenergic receptor (P07550 whole entry): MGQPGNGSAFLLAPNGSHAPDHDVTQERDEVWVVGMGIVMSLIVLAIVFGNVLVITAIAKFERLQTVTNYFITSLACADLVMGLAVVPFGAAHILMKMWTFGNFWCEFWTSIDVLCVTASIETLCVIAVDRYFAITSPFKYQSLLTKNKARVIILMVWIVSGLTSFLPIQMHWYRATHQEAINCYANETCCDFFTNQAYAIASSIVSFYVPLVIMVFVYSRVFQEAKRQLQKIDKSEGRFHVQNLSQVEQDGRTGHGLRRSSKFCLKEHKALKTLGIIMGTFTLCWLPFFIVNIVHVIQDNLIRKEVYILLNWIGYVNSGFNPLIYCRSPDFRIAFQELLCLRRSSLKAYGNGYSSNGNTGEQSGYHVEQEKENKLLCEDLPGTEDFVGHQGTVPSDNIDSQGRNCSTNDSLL

This assay concerns the target Beta-2 adrenergic receptor (Homo sapiens, UniProt P07550). As to the kind of experiment: Displacement of [3H]-CGP-12177 from human beta2-adrenergic receptor. A general note: Loss of bound radioactivity is the signal in a displacement assay; it reports binding, not function.
Take `COc1cc2c3c(c1OC)-c1ccccc1[C@H](O)[C@H]3NCC2`: the IC50 (usually the midpoint of a concentration-inhibition curve) is 1600 nM. Consider `COc1cc2c(cc1OC)[C@H]([C@H](O)c1ccccc1Cl)NCC2`, for which the IC50 is more than 10000 nM. `COc1cc2c(cc1OC)[C@H]([C@H](O)c1ccccc1)NCC2`: the IC50 was more than 10000 nM. For `COc1cc2c3c(c1OC)-c1ccccc1[C@@H](O)[C@]3(C)NCC2` (relative stereo), the IC50 worked out at 20 nM. On to `COc1ccc(CCNC[C@H](O)c2ccccc2)cc1OC`, for which the IC50 is 8400 nM. Turning to `COc1cc2c3c(c1OC)-c1ccccc1[C@@H](O)[C@H]3NCC2`, the IC50 came to 210 nM.
